Measured values: patent US8829007B2 (priority 2009, dated 2014)
Read-outs that look alike come from different tables or passages of the source.

What was measured:
[1] = system: A/PR/8/34 influenza virus; test: microbe, parasite or virus in culture; assay type: cell-based
[2] = system: influenza A virus (A/PR/8/34); test: microbe, parasite or virus in culture; assay type: cell-based
[3] = Influenza A virus, PR/8, MDCK, MDCK cells infected with A/PR/8/34, replication of influenza virus (viral RNA, bDNA), class symbols, read-out: EC50 (mean all)
[4] = Influenza A virus, PR/8, mean all, replication of A/PR/8/34 influenza virus (bDNA assay), read-out: EC50
[5] = Influenza A virus, PR/8, MDCK, MDCK cells infected with A/PR/8/34, survival of infected cells, class symbols, read-out: IC50 (mean all)
[6] = MDCK cells infected with A/PR/8/34, replication of influenza virus (viral RNA, bDNA), class symbols, read-out: EC50 (mean all)
[7] = Influenza A virus, PR/8, MDCK, bDNA assay, A/PR/8/34 influenza virus replication in MDCK cells, class symbols, read-out: EC50 (mean all)

Row | Compound | EC50 [1, 3] [µM] | other results
1 | CS(=O)(=O)N[C@@H]1CCCC[C@H]1CNc1nc(-c2c[nH]c3ncc(Cl)cc23)ncc1F (relative stereo) [Compound 557, N-(trans-2-((2-(5-chloro-1H-pyrrolo[2,3-b]pyridin-3-yl)-5-fluoropyrimidin-4-ylamino)methyl)cyclohexyl)methanesulfonamide] | < 5 | –
2 | CC[C@]1(C(=O)O)CCCC[C@H]1Nc1nc(-c2c[nH]c3ncc(Cl)cc23)ncc1F (relative stereo) [Compound 585, cis-2-(2-(5-chloro-1H-pyrrolo[2,3-b]pyridin-3-yl)-5-fluoropyrimidin-4-ylamino)-1-ethylcyclohexanecarboxylic acid] | – | EC50 ([1]; […], replication of influenza virus (viral RNA, bDNA), class symbols, read-out: EC50 (mean all)): < 5 µM
3 | C[C@]1(C(=O)O)CCC[C@H](Nc2nc(-c3c[nH]c4ncc(Cl)cc34)ncc2F)[C@H]1O (single isomer, unassigned) [Compound 928] | – | EC50 [1, 4]: < 5 µM
4 | C[C@@]1(C(=O)O)CCCC[C@H]1Nc1nc(-c2c[nH]c3ncc(Cl)cc23)ncc1F (stereo in doubt) [Compound 582, Trans-2-(2-(5-chloro-1H-pyrrolo[2,3-b]pyridin-3-yl)-5-fluoropyrimidin-4-ylamino)-1-methylcyclohexanecarboxylic acid] | < 5 | –
5 | Fc1cnc(-c2c[nH]c3ncc(Cl)cc23)nc1N[C@H]1CCCN(CC(F)F)C1 [Compound 1, (S)-2-(5-chloro-1H-pyrrolo[2,3-b]pyridin-3-yl)-N-(1-(2,2-difluoroethyl)piperidin-3-yl)-5-fluoropyrimidin-4-amine] | – | EC50 ([1]; Influenza A virus, PR/8, MDCK, MDCK cells infected with A/PR/8/34, bDNA viral RNA, read-out: EC50 (mean all)): < 5 µM
6 | CCNC(=O)[C@H]1CCCC[C@@H]1Nc1nc(-c2c[nH]c3ncc(Cl)cc23)ncc1F [Compound 521, (1S,2S)-2-(2-(5-chloro-1H-pyrrolo[2,3-b]pyridin-3-yl)-5-fluoropyrimidin-4-ylamino)-N-ethylcyclohexanecarboxamide] | – | IC50 [2, 5]: 5 to 20 µM
7 | CN(C)[C@H]1CCCC[C@@H]1Nc1nc(-c2c[nH]c3ncc(Cl)cc23)ncc1F [Compound 523, (1S,2S)—N1-(2-(5-chloro-1H-pyrrolo[2,3-b]pyridin-3-yl)-5-fluoropyrimidin-4-yl)-N2,N2-dimethylcyclohexane-1,2-diamine] | – | IC50 [2, 5]: > 20 µM
8 | CC(C)(O)CN1CCC[C@H](Nc2nc(-c3c[nH]c4ncc(Cl)cc34)ncc2F)C1 [Compound 546] | < 5 | –
9 | CC(=O)N[C@@H]1CCC[C@H](Nc2nc(-c3c[nH]c4ncc(Cl)cc34)ncc2F)C1 [Compound 547, N-[(1R,3S)-3-[[2-(5-chloro-1H-pyrrolo[2,3-b]pyridin-3-yl)-5-fluoro-pyrimidin-4-yl]amino]cyclohexyl]acetamide] | – | EC50 [1, 6]: < 5 µM
10 | COC(=O)N[C@H]1CCC[C@@H](Nc2nc(-c3c[nH]c4ncc(Cl)cc34)ncc2F)C1 [Compound 548, Methyl N-[(1S,3R)-3-[[2-(5-chloro-1H-pyrrolo[2,3-b]pyridin-3-yl)-5-fluoro-pyrimidin-4-yl]amino]cyclohexyl]carbamate] | < 5 | –
11 | CN(C)C(=O)N[C@H]1CCC[C@@H](Nc2nc(-c3c[nH]c4ncc(Cl)cc34)ncc2F)C1 [Compound 549, 3-[(1S,3R)-3-[[2-(5-chloro-1H-pyrrolo[2,3-b]pyridin-3-yl)-5-fluoro-pyrimidin-4-yl]amino]cyclohexyl]-1,1-dimethyl-urea] | < 5 | –
12 | COCC(O)CN1CC[C@H](C)[C@H](Nc2nc(-c3c[nH]c4ncc(Cl)cc34)ncc2F)C1 (stereo partly shown) [Compound 550] | < 5 | –
13 | CC(C)OCC(O)CN1CCCC(Nc2nc(-c3c[nH]c4ncc(Cl)cc34)ncc2F)C1 [Compound 551, 1-((S)-3-((2-(5-chloro-1H-pyrrolo[2,3-b]pyridin-3-yl)-5-fluoropyrimidin-4-ylamino)piperidin-1-yl)-3-isopropoxypropan-2-ol] | < 5 | –
14 | COC1CCC[C@H](Nc2nc(-c3c[nH]c4ncc(Cl)cc34)ncc2F)C1 (stereo partly drawn) [Compound 552, 2-(5-chloro-1H-pyrrolo[2,3-b]pyridin-3-yl)-5-fluoro-N-((1S)-3-methoxycyclohexyl)pyrimidin-4-amine] | < 5 | –
15 | CC(C(=O)O)N1CCCC(Nc2nc(-c3c[nH]c4ncc(Cl)cc34)ncc2F)C1 [Compound 573, 2-((S)-3-((2-(5-chloro-1H-pyrrolo[2,3-b]pyridin-3-yl)-5-fluoropyrimidin-4-ylamino)piperidin-1-yl)propanoic acid] | < 5 | –
16 | COCCOC(=O)[C@H]1CCCC[C@@H]1Nc1nc(-c2c[nH]c3ncc(Cl)cc23)ncc1F [Compound 574, (1S,2S)-2-methoxyethyl 2-(2-(5-chloro-1H-pyrrolo[2,3-b]pyridin-3-yl)-5-fluoropyrimidin-4-ylamino)cyclohexanecarboxylate] | < 5 | –
17 | COC(=O)[C@H]1CCCC[C@@H]1Nc1nc(-c2c[nH]c3ncc(Cl)cc23)ncc1F [Compound 575, (1S,2S)-methyl 2-(2-(5-chloro-1H-pyrrolo[2,3-b]pyridin-3-yl)-5-fluoropyrimidin-4-ylamino)cyclohexanecarboxylate] | < 5 | –
18 | CC(=O)N[C@@H]1CCC[C@H](Nc2nc(-c3c[nH]c4ncc(Cl)cc34)ncc2F)C1 [Compound 576, N-[(1R,3S)-3-[[2-(5-chloro-1H-pyrrolo[2,3-b]pyridin-3-yl)-5-fluoro-pyrimidin-4-yl]amino]cyclohexyl]acetamide] | < 5 | –
19 | O=C(O)CN1CCC[C@H](Nc2nc(-c3c[nH]c4ncc(Cl)cc34)ncc2F)C1 [Compound 577] | < 5 | –

Row | Compound | EC50 [1, 3] [µM] | other results
20 | O=C(O)[C@H]1CCCC[C@H]1Nc1nc(-c2c[nH]c3ncc(Cl)cc23)ncc1F [Compound 579, (1S,2R)-2-(2-(5-chloro-1H-pyrrolo[2,3-b]pyridin-3-yl)-5-fluoropyrimidin-4-ylamino)cyclohexanecarboxylic acid] | < 5 | –
21 | CC1(O)CCCCCC1Nc1nc(-c2c[nH]c3ncc(Cl)cc23)ncc1F (stereo not shown) [Compound 581] | – | EC50 [1, 6]: < 5 µM
22 | CC(C(N)=O)N1CCCC(Nc2nc(-c3c[nH]c4ncc(Cl)cc34)ncc2F)C1 [Compound 583, 2-((S)-3-((2-(5-chloro-1H-pyrrolo[2,3-b]pyridin-3-yl)-5-fluoropyrimidin-4-ylamino)piperidin-1-yl)propanamide] | < 5 | –
23 | COCCC(=O)N1CCC(F)(F)CC1CNc1nc(-c2c[nH]c3ncc(Cl)cc23)ncc1F (stereo not shown) [Compound 584, 1-(2-((2-(5-chloro-1H-pyrrolo[2,3-b]pyridin-3-yl)-5-fluoropyrimidin-4-ylamino)methyl)-4,4-difluoropiperidin-1-yl)-3-methoxypropan-1-one] | < 5 | –
24 | Fc1cnc(-c2c[nH]c3ncc(Cl)cc23)nc1N[C@H]1CCCN(Cc2ncc[nH]2)C1 [Compound 589, (S)—N-(1-((1H-imidazol-2-yl)methyl)piperidin-3-yl)-2-(5-chloro-1H-pyrrolo[2,3-b]pyridin-3-yl)-5-fluoropyrimidin-4-amine] | < 5 | –
25 | CC(C)(C(=O)O)N1CCC[C@H](Nc2nc(-c3c[nH]c4ncc(Cl)cc34)ncc2F)C1 [Compound 590] | > 3.3 | –
26 | COCCOC(=O)N[C@@H]1CCC[C@H](Nc2nc(-c3c[nH]c4ncc(Cl)cc34)ncc2F)C1 [Compound 592, 2-methoxyethyl N-[(1R,3S)-3-[[2-(5-chloro-1H-pyrrolo[2,3-b]pyridin-3-yl)-5-fluoro-pyrimidin-4-yl]amino]cyclohexyl]carbamate] | < 5 | –
27 | NC(=O)CN[C@@H]1CCC[C@H](Nc2nc(-c3c[nH]c4ncc(Cl)cc34)ncc2F)C1 [Compound 593] | < 5 | –
28 | N#CCCCN1CCC[C@@H](CNc2nc(-c3c[nH]c4ncc(Cl)cc34)ncc2F)C1 [Compound 666, (S)-4-(3-((2-(5-chloro-1H-pyrrolo[2,3-b]pyridin-3-yl)-5-fluoropyrimidin-4-ylamino)methyl)piperidin-1-yl)butanenitrile] | – | EC50 [1, 7]: > 10 µM
29 | N#CCCN1CCC[C@@H](CNc2nc(-c3c[nH]c4ncc(Cl)cc34)ncc2F)C1 [Compound 667, (S)-3-(3-((2-(5-chloro-1H-pyrrolo[2,3-b]pyridin-3-yl)-5-fluoropyrimidin-4-ylamino)methyl)piperidin-1-yl)propanenitrile] | – | EC50 [1, 7]: > 10 µM
30 | Fc1cnc(-c2c[nH]c3ncc(Cl)cc23)nc1N[C@H]1CCCN(CC(F)(F)F)C1 [Compound 668, (S)-2-(5-chloro-1H-pyrrolo[2,3-b]pyridin-3-yl)-5-fluoro-N-(1-(2,2,2-trifluoroethyl)piperidin-3-yl)pyrimidin-4-amine] | – | EC50 [1, 7]: < 5 µM
31 | COP(=O)(OC)[C@@]1(O)CCC[C@H](Nc2nc(-c3c[nH]c4ncc(Cl)cc34)ncc2F)C1 [Compound 741] | – | IC50 ([2]; read-out: IC50): < 5 µM
32 | COP(=O)(OC)[C@]1(O)CCC[C@H](Nc2nc(-c3c[nH]c4ncc(Cl)cc34)ncc2F)C1 [Compound 742] | – | IC50 ([2]; read-out: IC50): < 5 µM
33 | NC(=O)[C@@H]1CCC[C@H](Nc2nc(-c3c[nH]c4ncc(Cl)cc34)ncc2F)C1 [Compound 847] | – | EC50 ([1]; mean all, A/PR/8/34 influenza virus replication, bDNA, read-out: EC50): < 5 µM
34 | C[C@@]1(C(N)=O)CCC[C@H](Nc2nc(-c3c[nH]c4ncc(Cl)cc34)ncc2F)C1 [Compound 924, (1R,3S)-3-[[2-(5-chloro-1H-pyrrolo[2,3-b]pyridin-3-yl)-5-fluoro-pyrimidin-4-yl]amino]-1-methyl-cyclohexanecarboxamide] | – | EC50 [1, 4]: < 5 µM
35 | C[C@@]1(NC(=O)N2CCCC2)CCCC(Nc2nc(-c3c[nH]c4ncc(Cl)cc34)ncc2F)C1 (stereo partly shown) [Compound 926] | – | EC50 [1, 4]: < 5 µM
36 | (R)-ethyl 3-((2-(5-chloro-1H-pyrrolo[2,3-b]pyridin-3-yl)pyrimidin-4-ylamino)methyl)piperidine-1-carboxylate [Compound 495] | – | IC50 ([2]; read-out: IC50 (mean all)): 5 to 20 µM
37 | (S)-6-(2-(5-chloro-1H-pyrrolo[2,3-b]pyridin-3-yl)-5-fluoropyrimidin-4-ylamino)-4-(4-methoxybenzyl)-1,4-oxazepan-2-one [Compound 505] | – | IC50 ([2]; read-out: IC50 (mean all)): 5 to 20 µM
